Results published in patent US9504251B2, “Pesticidal compositions and related methods” (Dow AgroSciences LLC, priority 2014, dated 2016).
Like-named read-outs stand apart in the source and are kept apart here.

Columns and labels:
[1] = system: Green Peach Aphid (Myzus persicae) (GPA) (MYZUPE); assay: Green peach aphid (GPA) foliar spray bioassay on cabbage seedlings; assay type: in vivo; details: 72 h, 200 ppm foliar spray on cabbage seedlings, graded after three days, read-out: GPA % Control (or Mortality) rating
Experimental: Bioassay for GPA was prepared as follows: Cabbage seedlings grown in 3-inch pots, with 2-3 small (3-5 cm) true leaves, were used as test substrate. The seedlings were infested with 20-50 GPA (adult and nymph stages) one day prior to chemical application. Four pots with individual seedlings were used for each treatment. The tested compounds (2 mg) were dissolved in 2 mL of acetone/methanol (1:1) solvent to form stock solutions of 1000 ppm tested compound. The stock solutions were diluted five times with an aqueous solution containing 0.025% TWEEN® 20 surfactant, which is polyoxyethylene (20) sorbitan monolaurate, to obtain the solution at 200 ppm tested compound. A hand-held aspirator-type sprayer was used for spraying the solution to both sides of cabbage leaves until runoff. The control plants (solvent check) were sprayed with the diluent only containing 20% by volume of acetone/methanol (1:1) solvent. Treated plants were held in a holding room for three days at approximately 25° C. and ambient relative humidity (RH) prior to grading. Evaluation was conducted by counting the number of live aphids per plant under a microscope. Percent control was measured by using Abbott's correction formula (W. S. Abbott, “A Method of Computing the Effectiveness of an Insecticide,” J. Econ. Entomol. 18 (1925), pp. 265-267) as follows. Corrected % Control=100*(X−Y)/X
X=No. of live aphids on solvent check plants and
Y=No. of live aphids on treated plants
(§1) The comparative compounds were tested for insecticidal activities against GPA and WF pests using the same test protocols described above for the disclosed compounds.

[2] = system: Sweetpotato Whitefly-crawler (Bemisia tabaci) (WF) (BEMITA); assay: Sweetpotato whitefly-crawler (WF) foliar spray assay on cotton plants; assay type: in vivo; details: 216 h, 200 ppm foliar spray on cotton plants, graded after 9 days, read-out: WF % Control (or Mortality) rating
Experimental: Foliar spray assay for WF was prepared as follows: Cotton plants (Gossypium hirsutum) grown in 3-inch pots, with 1 small (4-5 cm) true leaf, were used as test substrate. The plants were infested with 200-400 whitefly eggs 4-5 days prior to chemical application. Four pots with individual plants were used for each treatment. Tested compounds (2 mg) were dissolved in 1 mL of acetone solvent, forming stock solutions of 2000 ppm tested compound.
The stock solutions were diluted ten times with 0.025% TWEEN® 20 surfactant in H2O (diluents) to obtain the solution at 200 ppm tested compound. A hand-held aspirator-type sprayer was used for spraying the solution to both sides of cotton leaves until runoff. The control plants (solvent check) were sprayed with the diluent only containing 10% by volume of acetone solvent. Treated plants were held in a holding room for 9 days at approximately 25° C. and ambient relative humidity (RH) prior to grading. Evaluation was conducted by counting the number of live 3-4 nymph stage per plant under a microscope. Percent control was measured by using Abbott's correction formula (W. S. Abbott, “A Method of Computing the Effectiveness of an Insecticide,” J. Econ. Entomol. 18 (1925), pp. 265-267) as follows. Corrected % Control=100*(X−Y)/X
X=No. of live nymphs on solvent check plants and
Y=No. of live nymphs on treated plants.
as §1

[3] = Abbott-corrected % control, disclosed compounds (TABLE 2)
[4] = same protocol, comparative compounds (TABLE 3)

| Compound | mortality at 200 ppm [1, 3] [%] | mortality at 200 ppm [2, 3] [%] | mortality at 200 ppm [1, 4] [%] | mortality at 200 ppm [2, 4] [%] |
| --- | --- | --- | --- | --- |
| CON=C(CN1CCc2nn(-c3cccnc3)cc2C1=O)c1ccc(C(F)(F)F)cc1 (single isomer, unassigned) [Compound P35, 5-(2-(methoxyimino)-2-(4-(trifluoromethyl)phenyl)ethyl)-2-(pyridin-3-yl)-2,5,6,7-tetrahydro-4H-pyrazolo[4,3-c]pyridin-4-one] | 80 to 100 |  |  |  |
| O=C(CN1CCc2nn(-c3cccnc3)cc2C1=O)c1ccc(C(F)(F)F)cc1 [Compound P21, 5-(2-oxo-2-(4-(trifluoromethyl)phenyl)ethyl)-2-(pyridin-3-yl)-2,5,6,7-tetrahydro-4H-pyrazolo[4,3-c]pyridin-4-one] | 80 to 100 |  |  |  |
| O=C(CN1CCc2nn(-c3cccnc3)cc2C1=O)c1cccc(C(F)(F)F)c1 [Compound P20, 5-(2-oxo-2-(3-(trifluoromethyl)phenyl)ethyl)-2-(pyridin-3-yl)-2,5,6,7-tetrahydro-4H-pyrazolo[4,3-c]pyridin-4-one] | 80 to 100 |  |  |  |
| CN1CCc2nn(-c3cccnc3)cc2C1=O [Compound F28, 5-methyl-2-(pyridin-3-yl)-6,7-dihydro-2H-pyrazolo[4,3-c]pyridin-4(5H)-one] | 80 to 100 | 0 to 80 |  |  |
| CS(=O)(=O)CN1CCc2nn(-c3cccnc3)cc2C1=O [Compound F51, 5-((methylsulfonyl)methyl)-2-(pyridin-3-yl)-6,7-dihydro-2H-pyrazolo[4,3-c]pyridin-4(5H)-one] | 80 to 100 | 80 to 100 |  |  |
| O=C(CN1CCc2nn(-c3cccnc3)cc2C1=O)c1ccccc1 [Compound P18, 5-(2-oxo-2-phenylethyl)-2-(pyridin-3-yl)-2,5,6,7-tetrahydro-4H-pyrazolo[4,3-c]pyridin-4-one] | 80 to 100 | 80 to 100 |  |  |
| COc1cccc(N2CCc3nn(-c4cccnc4)cc3C2=O)n1 [Compound F18, 5-(6-Methoxy-2-pyridyl)-2-(3-pyridyl)-6,7-dihydropyrazolo[4,3-c]pyridin-4-one] | 0 to 80 | 0 to 80 |  |  |
| O=C1c2cn(-c3ccccn3)nc2CCN1c1ccc(C(F)(F)F)cn1 [CE6, 2-(2-Pyridyl)-5-[5-(trifluoromethyl)-2-pyridyl]-6,7-dihydropyrazolo[4,3-c]pyridin-4-one, reference compound] |  |  | 0 to 80 | < 0 |
| O=C1c2cn(-c3cccnc3)nc2CCN1c1cccc(-c2ncccn2)n1 [Compound F38, 2-(3-Pyridyl)-5-(6-pyrimidin-2-yl-2-pyridyl)-6,7-dihydropyrazolo[4,3-c]pyridin-4-one] | 0 to 80 | < 0 |  |  |
| O=C1c2cn(-c3cccnc3)nc2CCN1Cc1ccc(F)cc1 [Compound F3, 5-(4-fluorobenzyl)-2-(pyridin-3-yl)-6,7-dihydro-2H-pyrazolo[4,3-c]pyridin-4(5H)-one] |  | 0 to 80 |  |  |
| O=C1c2cn(-c3cccnc3)nc2CCN1c1cccc(OC(F)(F)F)c1 [Compound F22, 2-(3-Pyridyl)-5-[3-(trifluoromethoxy)phenyl]-6,7-dihydropyrazolo[4,3-c]pyridin-4-one] | 80 to 100 | 80 to 100 |  |  |
| O=C1c2cn(-c3cccnc3)nc2CCN1Cc1ccccc1C(F)(F)F [Compound F32, 2-(3-Pyridyl)-5-[[2-(trifluoromethyl)phenyl]methyl]-6,7-dihydropyrazolo[4,3-c]pyridin-4-one] | 0 to 80 | 80 to 100 |  |  |
| N#CCN1CCc2nn(-c3cccnc3)cc2C1=O [Compound F39, 2-[4-Oxo-2-(3-pyridyl)-6,7-dihydropyrazolo[4,3-c]pyridin-5-yl]acetonitrile] | 80 to 100 | 0 to 80 |  |  |
| CSCN1CCc2nn(-c3ccccn3)cc2C1=O [Compound CE3, 5-(Methylsulfanylmethyl)-2-(2-pyridyl)-6,7-dihydropyrazolo[4,3-c]pyridin-4-one, reference compound] |  |  | < 0 | < 0 |
| O=C1c2cn(-c3cccnc3)nc2CCN1CC=NOCc1ccccc1 (racemic) [Compound P27, 2-(4-oxo-2-(pyridin-3-yl)-2,4,6,7-tetrahydro-5H-pyrazolo[4,3-c]pyridin-5-yl)acetaldehyde O-benzyl oxime] | 80 to 100 | 80 to 100 |  |  |
| O=C1c2cn(-c3cccnc3)nc2CCN1c1ncccn1 [Compound F34, 2-(3-Pyridyl)-5-pyrimidin-2-yl-6,7-dihydropyrazolo[4,3-c]pyridin-4-one] | 80 to 100 | 80 to 100 |  |  |
| O=C1c2cn(-c3cccnc3)nc2CCN1c1ccc(C(F)(F)F)cn1 [Compound F37, 2-(pyridin-3-yl)-5-(5-(trifluoromethyl)pyrdin-2-yl)-6,7-dihydro-2H-pyrazolo[4,3-c]pyridin-4(5H)-one] | 80 to 100 | 80 to 100 |  |  |
| O=C1c2cn(-c3cccnc3)nc2CCN1Cc1ccccc1F [Compound F17, 5-(2-fluorobenzyl)-2-(pyridin-3-yl)-6,7-dihydro-2H-pyrazolo[4,3-c]pyridin-4(5H)-one] | 0 to 80 | 80 to 100 |  |  |
| CON(C)C(=O)CN1CCc2nn(-c3cccnc3)cc2C1=O [Compound CA3, N-methoxy-N-methyl-2-(4-oxo-2-(pyridin-3-yl)-2,4,6,7-tetrahydro-5H-pyrazolo[4,3-c]pyridin-5-yl)acetamide] | 80 to 100 | 80 to 100 |  |  |
| CSCCN1CCc2nn(-c3cccnc3)cc2C1=O [Compound F40, 5-(2-(methylthio)ethyl)-2-(pyridin-3-yl)-6,7-dihydro-2H-pyrazolo[4,3-c]pyridin-4(5H)-one] | 80 to 100 | 80 to 100 |  |  |
| O=C1c2cn(-c3cccnc3)nc2CCN1c1cccc(C(F)(F)F)n1 [Compound F46, 2-(3-Pyridyl)-5-[6-(trifluoromethyl)-2-pyridyl]-6,7-dihydropyrazolo[4,3-c]pyridin-4-one] | 80 to 100 | 0 to 80 |  |  |
| CC(C)N1CCc2nn(-c3cccnc3)cc2C1=O [Compound F6, 5-Isopropyl-2-(3-pyridyl)-6,7-dihydropyrazolo[4,3-c]pyridin-4-one] | 80 to 100 | 80 to 100 |  |  |
| COc1ccc(CN2CCc3nn(-c4cccnc4)cc3C2=O)cc1 [Compound F23, 5-[(4-Methoxyphenyl)methyl]-2-(3-pyridyl)-6,7-dihydropyrazolo[4,3-c]pyridin-4-one] | 80 to 100 | 80 to 100 |  |  |
| CON=CCN1CCc2nn(-c3cccnc3)cc2C1=O (single isomer, unassigned) [Compound P26, 2-(4-oxo-2-(pyridin-3-yl)-2,4,6,7-tetrahydro-5H-pyrazolo[4,3-c]pyridin-5-yl)acetaldehyde O-methyl oxime] | 80 to 100 |  |  |  |
| CC(=O)CN1CCc2nn(-c3cccnc3)cc2C1=O [Compound CA4, 5-(2-oxopropyl)-2-(pyridin-3-yl)-2,5,6,7-tetrahydro-4H-pyrazolo[4,3-c]pyridin-4-one] | 80 to 100 |  |  |  |
| CON=C(CN1CCc2nn(-c3cccnc3)cc2C1=O)c1cccc(C(F)(F)F)c1 (single isomer, unassigned) [Compound P34, 5-(2-(methoxyimino)-2-(3-(trifluoromethyl)phenyl)ethyl)-2-(pyridin-3-yl)-2,5,6,7-tetrahydro-4H-pyrazolo[4,3-c]pyridin-4-one] | 80 to 100 |  |  |  |
